Experiments:
human liver α-fucosidase = settings: literature; compared with deoxyfuconojirimycin (4); cited from earlier work
α-Fucosidase = molecular target: T1, α-Fucosidase (Homo sapiens, UniProt P04066); assay: % inhibition of human liver α-fucosidase catalysed hydrolysis; format: biochemical
T1 construct: from tissue; host or cells: human liver
T1 sequence (P04066 32-466): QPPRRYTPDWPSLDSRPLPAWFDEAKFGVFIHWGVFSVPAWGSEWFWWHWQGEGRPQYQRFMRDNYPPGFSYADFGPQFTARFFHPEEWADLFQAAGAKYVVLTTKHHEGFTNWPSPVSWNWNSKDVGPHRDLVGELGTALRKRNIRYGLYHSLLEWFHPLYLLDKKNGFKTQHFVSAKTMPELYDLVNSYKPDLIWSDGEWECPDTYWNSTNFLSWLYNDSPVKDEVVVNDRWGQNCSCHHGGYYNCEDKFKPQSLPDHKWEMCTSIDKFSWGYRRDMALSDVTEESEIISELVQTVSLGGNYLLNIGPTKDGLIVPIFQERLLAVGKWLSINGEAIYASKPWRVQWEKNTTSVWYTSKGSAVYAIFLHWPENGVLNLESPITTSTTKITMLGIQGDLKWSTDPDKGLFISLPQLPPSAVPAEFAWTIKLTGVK
Experimental: % Inhibition of human liver α-fucosidase and α-mannosidase
catalysed hydrolysis of 4-umbelliferyl pyrranosides at
1 mM concentration of inhibitor

β-mannosidase = assay: inhibition of human liver β-mannosidase; format: biochemical
From the text: (§1) The relative potencies of these compounds as fucosidase inhibitors may be understood by considering them as analogues of α-L-fucose; all three compounds have the correct chirality of the secondary hydroxyl groups--the minimum requirement for inhibition of α-fucosidase. […] All the compounds are weaker inhibitors of α-fucosidase than is deoxyfuconojirimycin, since they all lack a lipophilic methyl substituent with correct configuration.

human α-mannosidases = assay: inhibition of human liver α-mannosidases (summary of lysosomal, Golgi II and neutral); format: biochemical; settings: for specificity and potency of inhibition of human α-mannosidases, HMJ compared with DMJ: HMJ (6) vs DMJ (5)
From the text: as §1

α-glucosidase = settings: literature; cited from earlier work
α-mannosidases = settings: literature; cited from earlier work

Row | inhibition of α-fucosidase (in words) (α-Fucosidase) | Compound | inhibition of β-mannosidase (in words) (β-mannosidase) | specificity and potency of inhibition of human α-mannosidases, HMJ compared with DMJ (human α-mannosidases) | further results
1 |  | C[C@@H]1N[C@H](CO)[C@@H](O)[C@H](O)[C@@H]1O [homofuconojirimycin (3), homofuconojirimycin] |  |  | inhibition of human liver α-fucosidase relative to deoxyfuconojirimycin (4) (human liver α-fucosidase): as powerful an inhibitor of human liver α-fucosidase as is deoxyfuconojirimycin (4)
2 | only a weak inhibitor of this enzyme | OC[C@H]1N[C@H](CO)[C@@H](O)C(O)[C@@H]1O (stereo partly drawn) [Homomannojirimycin (6), 2,6-dideoxy-2,6-imino-D-glycero-D-talo-heptitol] | Neither compound inhibited β-mannosidase | very similar | 
3 |  | OC[C@H]1N[C@H](CO[C@@H]2O[C@H](CO)[C@@H](O)[C@H](O)[C@H]2O)[C@H](O)[C@@H](O)[C@@H]1O [β-glucopyranosyl derivative (2)] |  |  | α-glucosidase inhibition (in words) (α-glucosidase): powerful α-glucosidase inhibitor
4 | powerful inhibitors of α-fucosidase | OC[C@@H]1N[C@H](CO)[C@@H](O)[C@@H](O)[C@@H]1O [6-Epi-homomannojirimycin (8), 2,6-dideoxy-2,6-imino-L-glycero-D-talo-heptitol] |  |  | inhibition of α-mannosidases (in words) (human α-mannosidases): did not inhibit any α-mannosidase

Row | Compound | inhibition of α-fucosidase (in words) (α-Fucosidase) | inhibition of β-mannosidase (in words) (β-mannosidase) | specificity and potency of inhibition of human α-mannosidases, HMJ compared with DMJ (human α-mannosidases) | further results
5 | OC[C@H]1NC[C@@H](O)[C@@H](O)[C@@H]1O [Deoxymannojirimycin (5), Deoxymannojirimycin] | powerful inhibitors of α-fucosidase | Neither compound inhibited β-mannosidase | very similar | inhibition of α-mannosidases in general (in words) (α-mannosidases): relatively weak inhibitor of α-mannosidases in general

Source: US5101027A, “Synthesis of mannojirimycin derivatives” (Monsanto Company, priority 1990, dated 1992)
